From ChEMBL document CHEMBL1201862, “PubChem BioAssay data set” (2004)
Each block holds one molecule with its values, some of them ahead of it. The source made the active and inactive calls.

Key:
[1] = target: T1, Short transient receptor potential channel 4 (Mus musculus, UniProt Q9QUQ5); assay: mouse TRPC4 channel inhibitors, dose response, cell-based, HEK293 TRPC4/mu-opioid, Fluo-4 calcium (AID 434942); assay type: functional;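 also: potency of inhibitors blocking the TRPC4 calcium response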
T1 sequence (Q9QUQ5 whole entry): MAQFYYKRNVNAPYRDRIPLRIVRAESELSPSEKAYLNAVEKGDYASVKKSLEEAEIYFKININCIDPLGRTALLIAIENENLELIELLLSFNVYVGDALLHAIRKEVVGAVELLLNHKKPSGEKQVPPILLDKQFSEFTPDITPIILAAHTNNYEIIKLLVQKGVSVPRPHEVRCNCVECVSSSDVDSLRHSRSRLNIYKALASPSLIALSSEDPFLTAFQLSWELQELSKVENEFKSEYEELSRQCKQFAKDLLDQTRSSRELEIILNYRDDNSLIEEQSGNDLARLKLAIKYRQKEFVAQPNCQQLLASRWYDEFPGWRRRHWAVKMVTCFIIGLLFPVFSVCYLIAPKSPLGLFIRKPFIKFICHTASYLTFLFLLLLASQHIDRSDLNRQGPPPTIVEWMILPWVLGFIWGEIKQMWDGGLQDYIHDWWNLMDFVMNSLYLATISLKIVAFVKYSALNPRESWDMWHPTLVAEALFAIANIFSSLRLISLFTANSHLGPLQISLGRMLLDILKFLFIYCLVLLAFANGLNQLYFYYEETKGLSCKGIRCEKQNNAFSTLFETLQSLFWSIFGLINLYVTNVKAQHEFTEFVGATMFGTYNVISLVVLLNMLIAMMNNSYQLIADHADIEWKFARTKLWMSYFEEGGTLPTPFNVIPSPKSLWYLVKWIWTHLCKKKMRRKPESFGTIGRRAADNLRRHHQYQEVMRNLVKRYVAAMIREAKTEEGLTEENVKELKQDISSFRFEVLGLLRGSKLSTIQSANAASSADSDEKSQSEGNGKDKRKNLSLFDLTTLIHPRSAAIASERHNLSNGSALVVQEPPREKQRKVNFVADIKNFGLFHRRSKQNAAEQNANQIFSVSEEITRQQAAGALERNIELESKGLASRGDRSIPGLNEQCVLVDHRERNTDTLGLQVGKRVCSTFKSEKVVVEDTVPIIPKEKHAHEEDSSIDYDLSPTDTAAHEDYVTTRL

[2] = target: T2, Rac GTPase-activating protein 1 (Homo sapiens, UniProt Q9H0H5); assay: MgcRacGAP GTPase-activating activity inhibitors, confirmation, biochemical, ADP Hunter fluorescence, primary and confirmatory (AID 624330); assay type: functional
T2 sequence (Q9H0H5 whole entry): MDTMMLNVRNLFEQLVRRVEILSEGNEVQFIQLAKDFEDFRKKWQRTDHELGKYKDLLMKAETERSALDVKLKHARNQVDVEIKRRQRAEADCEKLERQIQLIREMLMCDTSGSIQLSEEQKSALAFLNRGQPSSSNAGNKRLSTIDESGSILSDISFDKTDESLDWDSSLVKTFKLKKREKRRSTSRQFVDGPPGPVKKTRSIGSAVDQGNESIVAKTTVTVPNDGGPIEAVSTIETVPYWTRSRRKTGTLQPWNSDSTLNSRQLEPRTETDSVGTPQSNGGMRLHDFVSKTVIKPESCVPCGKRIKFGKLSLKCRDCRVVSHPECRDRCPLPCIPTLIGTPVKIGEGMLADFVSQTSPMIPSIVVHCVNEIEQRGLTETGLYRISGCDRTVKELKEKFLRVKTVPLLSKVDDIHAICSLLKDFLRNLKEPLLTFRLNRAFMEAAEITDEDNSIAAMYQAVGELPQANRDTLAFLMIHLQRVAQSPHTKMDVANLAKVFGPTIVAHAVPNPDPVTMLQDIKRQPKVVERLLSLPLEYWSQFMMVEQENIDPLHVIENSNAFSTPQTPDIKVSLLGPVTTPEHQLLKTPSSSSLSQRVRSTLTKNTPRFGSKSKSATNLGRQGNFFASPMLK

[3] = test system: H9c2; assay: cells; assay type: functional, cell-based; conditions: Rattus norvegicus, H9c2, Myocardium;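 also: confirmatory concentration-response retest of ultra-high-throughput screening hits for modulation of myocardial damage; cell death induced by hydrogen peroxide oxidative stress; compound pretreatment for 60 min then peroxide exposure for 2 h; potency is for protecting the cells against peroxide damage rather than for killing them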
[4] = target: Luciferin 4-monooxygenase (Photinus pyralis, UniProt P08659); assay: firefly luciferase enzyme inhibitors, dose response, biochemical, luminescence (AID 1891)
Sequence of Luciferin 4-monooxygenase (P08659 whole entry): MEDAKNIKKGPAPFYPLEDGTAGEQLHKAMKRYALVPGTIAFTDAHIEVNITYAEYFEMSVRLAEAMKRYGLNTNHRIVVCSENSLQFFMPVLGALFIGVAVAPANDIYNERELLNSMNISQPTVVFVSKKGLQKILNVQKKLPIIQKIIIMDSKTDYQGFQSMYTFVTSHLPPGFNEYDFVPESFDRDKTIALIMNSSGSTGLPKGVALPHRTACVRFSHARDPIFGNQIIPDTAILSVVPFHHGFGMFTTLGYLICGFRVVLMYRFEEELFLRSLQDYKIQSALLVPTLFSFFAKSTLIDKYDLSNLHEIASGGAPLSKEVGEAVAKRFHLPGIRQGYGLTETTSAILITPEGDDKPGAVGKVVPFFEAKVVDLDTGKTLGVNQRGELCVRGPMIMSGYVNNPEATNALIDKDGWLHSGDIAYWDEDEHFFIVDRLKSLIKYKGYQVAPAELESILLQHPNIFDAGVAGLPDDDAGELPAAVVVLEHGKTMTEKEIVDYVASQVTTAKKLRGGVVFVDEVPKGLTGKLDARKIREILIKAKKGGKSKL

[5] = Luminescence Cell-Based Dose Confirmation HTS to Identify Inhibitors of Platelet Dense Granule Release. [Related pubchem assays: 1663 (Primary HTS), 1678 (Summary of Project)]; assay type: functional
[6] = inhibitors of SNCA 5'UTR-driven reporter translation, confirmation, H4 neuroglioma cells, luminescence (AID 1988); assay type: functional, cell-based
[7] = Luminescence Cell-Based Dose Retest to Confirm Inhibitors of Cancer Stem Cells. [Related pubchem assays (depositor defined):AID2717, AID2721]; assay type: functional; conditions: Homo sapiens
[8] = target: T3, RNA-binding protein pos-1 (Caenorhabditis elegans, UniProt G5EF15); assay: inhibitors of POS-1/mex-3 RNA binding, dose response, biochemical, fluorescence polarization (AID 1964);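 also: purified POS-1 fused to maltose binding protein made in E. coli; potency of compounds blocking POS-1 binding to fluorescent RNA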
T3 sequence (G5EF15 whole entry): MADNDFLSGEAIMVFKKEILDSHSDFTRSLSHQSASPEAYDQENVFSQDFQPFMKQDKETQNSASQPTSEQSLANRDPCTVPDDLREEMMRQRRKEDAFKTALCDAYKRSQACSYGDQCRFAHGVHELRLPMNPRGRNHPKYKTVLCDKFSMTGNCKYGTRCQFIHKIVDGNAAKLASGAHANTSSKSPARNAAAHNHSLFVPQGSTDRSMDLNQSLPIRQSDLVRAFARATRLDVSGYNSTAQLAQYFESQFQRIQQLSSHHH

[9] = target: Cytochrome P450 3A4 (Homo sapiens, UniProt P08684);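 also: CYP3A4 tested as one member of a cytochrome P450 panel screen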
Sequence of Cytochrome P450 3A4 (P08684 whole entry): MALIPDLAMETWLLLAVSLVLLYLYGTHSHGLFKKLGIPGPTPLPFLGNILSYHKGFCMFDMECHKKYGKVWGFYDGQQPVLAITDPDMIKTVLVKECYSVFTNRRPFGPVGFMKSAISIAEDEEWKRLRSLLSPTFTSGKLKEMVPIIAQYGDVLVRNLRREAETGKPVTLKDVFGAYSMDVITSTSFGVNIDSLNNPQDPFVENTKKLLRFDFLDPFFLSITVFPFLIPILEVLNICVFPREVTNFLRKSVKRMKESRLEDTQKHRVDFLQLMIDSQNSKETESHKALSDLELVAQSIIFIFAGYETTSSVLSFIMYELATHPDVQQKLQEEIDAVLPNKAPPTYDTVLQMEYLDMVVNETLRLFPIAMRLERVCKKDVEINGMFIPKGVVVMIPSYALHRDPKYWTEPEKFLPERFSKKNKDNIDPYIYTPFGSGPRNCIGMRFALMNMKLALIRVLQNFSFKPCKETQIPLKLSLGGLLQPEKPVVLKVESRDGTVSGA

[10] = target: Cytochrome P450 2C9 (Homo sapiens, UniProt P11712)
Sequence of Cytochrome P450 2C9 (P11712 whole entry): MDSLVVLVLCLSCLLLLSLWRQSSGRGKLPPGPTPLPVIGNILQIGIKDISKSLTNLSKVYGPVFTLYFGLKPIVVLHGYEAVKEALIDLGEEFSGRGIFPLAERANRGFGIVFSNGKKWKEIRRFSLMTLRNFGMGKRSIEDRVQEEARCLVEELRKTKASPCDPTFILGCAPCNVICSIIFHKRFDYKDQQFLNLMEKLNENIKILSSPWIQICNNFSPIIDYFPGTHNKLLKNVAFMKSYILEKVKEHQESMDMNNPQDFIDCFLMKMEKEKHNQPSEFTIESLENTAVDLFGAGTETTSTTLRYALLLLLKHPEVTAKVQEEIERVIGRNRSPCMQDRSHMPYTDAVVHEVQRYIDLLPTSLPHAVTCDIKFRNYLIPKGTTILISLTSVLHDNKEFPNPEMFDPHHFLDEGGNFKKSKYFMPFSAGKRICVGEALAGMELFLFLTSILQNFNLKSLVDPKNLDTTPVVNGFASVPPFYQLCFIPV

[11] = target: Cytochrome P450 2C19 (Homo sapiens, UniProt P33261); assay: Cytochrome panel assay with activity outcomes. Panel member name: p450-cyp2c19 Compounds with AC50 equal or less than 10 uM are considered active; assay type: functional; conditions: read-out: AC50
Sequence of Cytochrome P450 2C19 (P33261 whole entry): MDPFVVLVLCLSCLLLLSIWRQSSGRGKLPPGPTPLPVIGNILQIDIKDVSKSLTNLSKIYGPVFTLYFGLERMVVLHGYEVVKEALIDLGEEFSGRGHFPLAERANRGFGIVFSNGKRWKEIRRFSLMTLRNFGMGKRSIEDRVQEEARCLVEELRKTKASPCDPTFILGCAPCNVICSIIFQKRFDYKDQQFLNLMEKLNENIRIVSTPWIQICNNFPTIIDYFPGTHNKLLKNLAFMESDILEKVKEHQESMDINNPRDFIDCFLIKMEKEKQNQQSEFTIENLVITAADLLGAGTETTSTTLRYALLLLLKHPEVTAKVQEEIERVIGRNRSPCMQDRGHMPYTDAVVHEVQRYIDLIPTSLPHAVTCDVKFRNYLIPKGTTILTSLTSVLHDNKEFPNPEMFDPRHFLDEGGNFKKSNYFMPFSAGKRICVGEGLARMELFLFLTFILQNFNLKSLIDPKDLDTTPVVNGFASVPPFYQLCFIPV

[12] = target: T4, Cytochrome P450 1A2 (Homo sapiens, UniProt P05177);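 also: PubChem cytochrome P450 panel assay, CYP1A2 panel member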
T4 sequence (P05177 whole entry): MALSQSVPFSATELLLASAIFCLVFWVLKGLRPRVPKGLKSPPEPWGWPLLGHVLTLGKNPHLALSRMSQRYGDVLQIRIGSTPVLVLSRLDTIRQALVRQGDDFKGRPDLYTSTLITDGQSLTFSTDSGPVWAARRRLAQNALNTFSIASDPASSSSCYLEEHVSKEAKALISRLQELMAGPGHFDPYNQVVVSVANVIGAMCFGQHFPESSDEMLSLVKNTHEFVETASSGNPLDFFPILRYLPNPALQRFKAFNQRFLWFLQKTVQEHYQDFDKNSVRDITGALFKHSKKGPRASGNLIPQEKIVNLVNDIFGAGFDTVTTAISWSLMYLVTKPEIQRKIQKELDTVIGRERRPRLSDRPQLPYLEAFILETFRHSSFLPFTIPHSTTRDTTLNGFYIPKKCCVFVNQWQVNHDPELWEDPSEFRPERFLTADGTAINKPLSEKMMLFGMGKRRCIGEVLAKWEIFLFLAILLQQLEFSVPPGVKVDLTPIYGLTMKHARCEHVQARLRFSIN

[13] = P. falciparum Dd2 growth inhibitors, dose response, SYBR Green, cherry-picked samples (AID 1159567); assay type: functional, cell-based

EC50 [1]: 2.99 µM (active)
SMILES: CCCCN(Cc1ccccc1)C(=O)C1CCN(Cc2sccc2C)CC1

EC50 [1]: 8.41 µM (active)
SMILES: COc1ccc(CNC(=O)CN(C)Cc2ccccc2F)cc1OC

IC50 [2]: 39.8 µM (active)
SMILES: CCOc1cc(/C=N/NC(=O)C(C)Sc2ccccn2)ccc1O (stereo not drawn)

EC50 [1]: 2.99 µM (active)
SMILES: Nc1c2c(nc3c1CCCC3)CCCC2.O=C(O)c1ccnc(O)c1

EC50 [1]: 1.68 µM (active)
SMILES: CCCCn1c(SCC(=O)OCC)nc2c(sc(=S)n2-c2ccccc2OC)c1=O

SMILES: COc1cc(-c2cc(NC(C)=O)c3ncc(-c4cc(OC)c(OC)c(OC)c4)n3c2)cc(OC)c1OC
IC50 [3]: > 79 µM (inactive)

SMILES: Clc1ccc(/C=C/c2nc3ccccc3[nH]2)cc1
EC50 [4]: 0.545 µM (active)
EC50 [5]: 1.05 µM (active)
EC50 [6]: 9.68 µM (inconclusive)
AC50 [7]: 2.34 µM (active)

IC50 [2]: 18.2 µM (active)
SMILES: Oc1ccc(-c2csc(Nc3cccnc3)n2)cc1

EC50 [1]: 4.73 µM (active)
SMILES: CSc1nc(N2CCOCC2)c2c3c(sc2n1)CCCC3

EC50 [1]: 5.96 µM (active)
SMILES: Cc1ccc(NC(=O)CSCC(=O)OCc2cc(=O)oc3cc(O)ccc23)c(C)c1

EC50 [1]: 2.99 µM (active)
SMILES: O=C(Cn1c(NCCCO)nc2ccccc21)c1ccc(Br)cc1

EC50 [8]: > 300 µM (not active)
SMILES: CN(C)c1ccc(/C=N/N(CCC(=O)NC(C)(C)C)C2=NS(=O)(=O)c3ccccc32)cc1

SMILES: CC(=O)Nc1ccc(OC(=O)N(C)c2ccccc2)cc1
EC50 [4]: > 112 µM (not active)
EC50 [5]: 18.8 µM (active)

SMILES: O=C(CCc1ccccc1)Nc1nncs1
EC50 [4]: > 112 µM (not active)
EC50 [5]: > 112 µM (not active)
AC50 [9]: 12.6 µM (inconclusive)
AC50 [10]: 31.6 µM (inconclusive)
AC50 [11]: 39.8 µM (inconclusive)

SMILES: CCOc1ccc(N/C=C/C(=O)c2ccc(OC)cc2)cc1
EC50 [4]: > 112 µM (not active)
EC50 [5]: > 112 µM (not active)

IC50 [2]: 48.3 µM (active)
SMILES: Oc1ccc(N2CCN(c3ccnc4cc(Cl)ccc34)CC2)cc1

SMILES: Nc1nc(Nc2ccccc2)nc2c1ncn2[C@@H]1O[C@H](CO)[C@@H](O)[C@H]1O
EC50 [4]: > 112 µM (not active)
EC50 [5]: 0.224 µM (active)

SMILES: COc1ccc(C(=O)NNC(=O)c2ccc3ccccc3n2)cc1
IC50 [3]: > 79 µM (inactive)

SMILES: COc1ccc(CCCNC(=O)C2(C)Cc3c(-c4ccc(NC(C)=O)cc4)ccnc3O2)cc1 (stereo not drawn)
IC50 [3]: > 79 µM (inactive)

SMILES: CS(=O)(=O)N(Cc1ccc(C(=O)NCCSc2ccccn2)cc1)c1ccccc1
IC50 [3]: 17.4 µM (active)

SMILES: CCOC(=O)c1ccccc1OCc1cc(/C=N/NC(=O)c2cccnc2)ccc1OC
IC50 [3]: > 79 µM (inactive)

SMILES: CC(=O)Nc1cccc(-c2cc(NC(C)=O)c3ncc(-c4cccc(C(C)=O)c4)n3c2)c1
IC50 [3]: > 79 µM (inactive)

SMILES: CCn1nnc(NC(=O)c2cccnc2)n1
EC50 [4]: > 112 µM (not active)
EC50 [5]: > 112 µM (not active)

SMILES: CCOC(=O)c1ccccc1NC(=O)c1ccc2c(=O)n3c(nc2c1)CCCCC3
IC50 [3]: > 79 µM (inactive)

EC50 [1]: 3.76 µM (active)
SMILES: Cc1ccc(NC(=O)CN2CCc3ccccc3C2)cc1S(=O)(=O)N1CCOCC1

SMILES: Cc1ccccc1OCCC(=O)N1CCN(S(=O)(=O)c2ccccc2F)CC1
EC50 [4]: > 112 µM (not active)
EC50 [5]: > 112 µM (not active)

EC50 [1]: 2.37 µM (active)
SMILES: Cc1cc(C)c(S(=O)(=O)c2ccccc2C)c(OCC(C)(C)C)n1

IC50 [2]: 35.9 µM (active)
SMILES: O=C1CSC(Nc2ccc(O)cc2)=N1

SMILES: CCOC(=O)c1ccc(-c2ccc(/C=C(\C#N)C(=O)NCC3CCCO3)o2)cc1 (stereo not drawn)
IC50 [3]: > 79 µM (inactive)
AC50 [10]: 5.62 µM (inconclusive)
AC50 [12]: 4.47 µM (inconclusive)
AC50 [11]: 2.51 µM (inconclusive)

IC50 [2]: 61.4 µM (active)
SMILES: COc1cc(/C=C/C(=O)OC(C)C(=O)Nc2c(C)n(C)n(-c3ccccc3)c2=O)ccc1O (stereo not drawn)

IC50 [2]: 152 µM (active)
SMILES: COc1cc(CNC2CCCCC2OC)cc(OC)c1 (stereo not drawn)

SMILES: CC(C)CC(=O)Nc1cccc(NC(=O)c2ccccc2Cl)c1
EC50 [4]: > 112 µM (not active)
EC50 [5]: 2.39 µM (active)

SMILES: O=C(CCCSc1nc(O)c2c3c(sc2n1)CCC3)NCCCO
IC50 [3]: 19.9 µM (active)

EC50 [1]: 4.22 µM (active)
SMILES: C=CCOc1ccc(C2CC(C)=NN2c2ccccc2)cc1 (stereo not drawn)

SMILES: CN(CC(=O)Nc1cccc(F)c1)C(=O)CCCc1nc(O)c2ccccc2n1
IC50 [3]: > 79 µM (inactive)

EC50 [1]: 2.37 µM (active)
SMILES: CCOC(=O)CSc1nc2c(sc(=S)n2Cc2ccco2)c(=O)n1-c1ccccc1

SMILES: CCOc1cc(/C=C/c2nc(O)c3ccccc3n2)ccc1O
IC50 [3]: 9.17 µM (active)

EC50 [1]: 1.33 µM (active)
SMILES: COc1ccc(C)cc1N(C(=O)c1snc(C(N)=O)c1N)C(C(=O)NC1CCCC1)c1ccc(F)cc1 (stereo not drawn)

SMILES: N#Cc1ccc(-c2ccc([C@@H]3[C@@H](CO)N4C(=O)CN(C(=O)C5CCC5)C[C@@H]34)cc2)cc1
AC50 [13]: 5.38 µM (active)

IC50 [2]: 99.7 µM (active)
SMILES: CCS(=O)(=O)c1ccc2oc(=O)c(/C=C(\O)c3ccc(Cl)cc3)nc2c1

SMILES: O=C(CN1C(=O)c2cccc3cccc1c23)N1CCN(c2cccc(Cl)c2)CC1
EC50 [4]: > 112 µM (not active)
EC50 [5]: > 112 µM (not active)
